Measurements reported in US20150105252A1, “SUBSTITUTED PYRAZOLES AS HERBICIDES” (E I DU PONT DE NEMOURS AND COMPANY, priority 2013, published 2015).

Assays:
[1] = system: rice; test: Test B flood; type: in vivo, Oryza sativa; conditions: 250 g ai/ha, visual rating on 0 to 100 scale (0 no effect, 100 complete control), 13 to 15 days
Procedure, shortened: (§1)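 Flooded-pot test: compound dosed into 3 cm of standing water above soil when plants had two leaves. Visual control ratings (0–100) versus untreated plants after 13–15 d.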

[2] = system: barnyardgrass; test: Test B flood; type: in vivo, Echinochloa crus-galli; conditions: 250 g ai/ha, visual rating on 0 to 100 scale (0 no effect, 100 complete control), 13 to 15 days
Procedure, shortened: as §1

[3] = system: nutsedge, yellow; test: Test C preemergence; type: in vivo, Cyperus esculentus
Procedure, shortened: (§2)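 Herbicidal effect is expressed as percent visual control (0–100) judged against untreated plants 13 to 15 days after treatment in the greenhouse. Preemergence pots contained seeds in a soil–sand blend; postemergence plants, 2–18 cm tall, grew in peat-based planting medium.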

[4] = system: ryegrass, Italian; test: Test C postemergence; type: in vivo, Lolium multiflorum; conditions: for Plant response rating (scale of 0 to 100), Ryegrass, Italian / Plant response rating (scale of 0 to 100 where 0 is no effect and 100 is complete control), Ryegrass, Italian: Postemergence; for Plant response rating (scale of 0 to 100), Ryegrass, Italian: 16 g ai/ha; for Ryegrass, Italian plant response rating / Plant response rating, Ryegrass, Italian: postemergence; for Ryegrass, Italian plant response rating: 62 g ai/ha, scale 0 to 100; for Plant response rating (scale of 0 to 100 where 0 is no effect and 100 is complete control), Ryegrass, Italian: 31 g ai/ha, visually evaluated after 13 to 15 days
Procedure, shortened: as §2

[5] = system: foxtail, giant; test: Test C postemergence; type: in vivo, Setaria faberii; conditions: for Plant response rating (scale of 0 to 100), Foxtail, Giant: 16 g ai/ha; for Foxtail, Giant plant response rating: scale 0 to 100; for Plant response rating (scale of 0 to 100 where 0 is no effect and 100 is complete control), Foxtail, Giant: visually evaluated after 13 to 15 days
Procedure, shortened: as §2

[6] = system: johnsongrass; test: Test C postemergence; type: in vivo, Sorghum halepense; conditions: for Plant response rating (scale of 0 to 100), Johnsongrass: 16 g ai/ha; for Johnsongrass plant response rating: scale 0 to 100; for Plant response rating (scale of 0 to 100 where 0 is no effect and 100 is complete control), Johnsongrass: visually evaluated after 13 to 15 days
Procedure, shortened: as §2

[7] = system: morningglory; test: Test C postemergence; type: in vivo, Ipomoea coccinea; conditions: for Plant response rating (scale of 0 to 100), Morningglory: 16 g ai/ha; for Morningglory plant response rating: scale 0 to 100
Procedure, shortened: as §2

[8] = system: nutsedge, yellow; test: Test C postemergence; type: in vivo, Cyperus esculentus; conditions: for Plant response rating (scale of 0 to 100), Nutsedge, Yellow: 16 g ai/ha; for Nutsedge, Yellow plant response rating: scale 0 to 100; for Plant response rating (scale of 0 to 100 where 0 is no effect and 100 is complete control), Nutsedge, Yellow: visually evaluated after 13 to 15 days
Procedure, shortened: as §2

[9] = system: pigweed; test: Test C postemergence; type: in vivo, Amaranthus retroflexus; conditions: for Plant response rating (scale of 0 to 100), Pigweed: 16 g ai/ha; for Pigweed plant response rating: scale 0 to 100; for Plant response rating (scale of 0 to 100 where 0 is no effect and 100 is complete control), Pigweed: visually evaluated after 13 to 15 days
Procedure, shortened: as §2

[10] = system: oat, wild; test: Test C postemergence; type: in vivo, Avena fatua; conditions: for Plant response rating (scale of 0 to 100), Oat, Wild: 16 g ai/ha; for Oat, Wild plant response rating: scale 0 to 100; for Plant response rating (scale of 0 to 100 where 0 is no effect and 100 is complete control), Oat, Wild: visually evaluated after 13 to 15 days
Procedure, shortened: as §2

[11] = preemergence, 31 g ai/ha, scale 0 to 100 (0 no effect, 100 complete control), 13 to 15 days
[12] = preemergence, 62 g ai/ha, 13 to 15 days, scale 0 to 100, 0 = no effect, 100 = complete control
[13] = preemergence, 125 g ai/ha, scale 0 to 100, 0 is no effect, 100 is complete control
[14] = 125 g ai/ha, scale 0 to 100, 0 no effect, 100 complete control
[15] = postemergence, 125 g ai/ha, scale 0 to 100, 0 no effect, 100 complete control
[16] = postemergence, 250 g ai/ha, scale 0 to 100 (0 no effect, 100 complete control)

## CCCNC(=O)c1cc(CC)n(Cc2ccnc(C(F)(F)F)c2)n1 [Compound 75]
[1]
  Plant response rating, Rice: 35
[2]
  Plant response rating, Barnyardgrass: 40
[3]; [11]
  Nutsedge, Yellow plant response rating: 55
[3]; [12]
  Plant response rating, Nutsedge, Yellow: 75
[3]; [13]
  Nutsedge, Yellow plant response rating: 85
[4]
  Plant response rating (scale of 0 to 100), Ryegrass, Italian: 5
  Ryegrass, Italian plant response rating: 5
[4]; [14]
  Plant response rating, Ryegrass, Italian: 10
[5]; Postemergence
  Plant response rating (scale of 0 to 100), Foxtail, Giant: 15
[5]; Postemergence, 31 g ai/ha
  Foxtail, Giant plant response rating: 20
[5]; postemergence, 62 g ai/ha
  Foxtail, Giant plant response rating: 25
[5]; [15]
  Plant response rating, Foxtail, Giant: 50
[6]; Postemergence
  Plant response rating (scale of 0 to 100), Johnsongrass: 10
[6]; Postemergence, 31 g ai/ha
  Johnsongrass plant response rating: 10
[6]; postemergence, 62 g ai/ha
  Johnsongrass plant response rating: 10
[6]; [15]
  Plant response rating, Johnsongrass: 10
[7]; Postemergence
  Plant response rating (scale of 0 to 100), Morningglory: 25
[7]; Postemergence, 31 g ai/ha
  Morningglory plant response rating: 75
[7]; postemergence, 62 g ai/ha
  Morningglory plant response rating: 80
[7]; [15]
  Plant response rating, Morningglory: 98
[8]; Postemergence
  Plant response rating (scale of 0 to 100), Nutsedge, Yellow: 0
[8]; Postemergence, 31 g ai/ha
  Nutsedge, Yellow plant response rating: 5
[8]; postemergence, 62 g ai/ha
  Nutsedge, Yellow plant response rating: 5
[8]; [15]
  Plant response rating, Nutsedge, Yellow: 10
[9]; Postemergence
  Plant response rating (scale of 0 to 100), Pigweed: 40
[9]; Postemergence, 31 g ai/ha
  Pigweed plant response rating: 40
[9]; postemergence, 62 g ai/ha
  Pigweed plant response rating: 60
[9]; [15]
  Plant response rating, Pigweed: 80
[10]; Postemergence
  Plant response rating (scale of 0 to 100), Oat, Wild: 5
[10]; Postemergence, 31 g ai/ha
  Oat, Wild plant response rating: 5
[10]; postemergence, 62 g ai/ha
  Oat, Wild plant response rating: 5
[10]; [15]
  Plant response rating, Oat, Wild: 25

## CCONC(=O)c1cc(CC)n(Cc2ccnc(C(F)(F)F)c2)n1 [Compound 77]
[1]
  Plant response rating, Rice: 20
[2]
  Plant response rating, Barnyardgrass: 0
[3]; Preemergence, 16 g ai/ha, scale 0 to 100
  Plant response rating, Nutsedge, Yellow: 10
[3]; [11]
  Nutsedge, Yellow plant response rating: 10
[3]; [12]
  Plant response rating, Nutsedge, Yellow: 25
[3]; [13]
  Nutsedge, Yellow plant response rating: 60
[4]
  Plant response rating (scale of 0 to 100), Ryegrass, Italian: 0
  Plant response rating (scale of 0 to 100 where 0 is no effect and 100 is complete control), Ryegrass, Italian: 5
  Ryegrass, Italian plant response rating: 5
[4]; [14]
  Plant response rating, Ryegrass, Italian: 5
[5]; Postemergence
  Plant response rating (scale of 0 to 100), Foxtail, Giant: 5
[5]; Postemergence, 31 g ai/ha
  Plant response rating (scale of 0 to 100 where 0 is no effect and 100 is complete control), Foxtail, Giant: 5
[5]; postemergence, 62 g ai/ha
  Foxtail, Giant plant response rating: 10
[5]; [15]
  Plant response rating, Foxtail, Giant: 20
[6]; Postemergence
  Plant response rating (scale of 0 to 100), Johnsongrass: 5
[6]; Postemergence, 31 g ai/ha
  Plant response rating (scale of 0 to 100 where 0 is no effect and 100 is complete control), Johnsongrass: 5
[6]; postemergence, 62 g ai/ha
  Johnsongrass plant response rating: 5
[6]; [15]
  Plant response rating, Johnsongrass: 5
[7]; Postemergence
  Plant response rating (scale of 0 to 100), Morningglory: 10
[7]; postemergence, 62 g ai/ha
  Morningglory plant response rating: 20
[7]; [15]
  Plant response rating, Morningglory: 40
[8]; Postemergence
  Plant response rating (scale of 0 to 100), Nutsedge, Yellow: 0
[8]; Postemergence, 31 g ai/ha
  Plant response rating (scale of 0 to 100 where 0 is no effect and 100 is complete control), Nutsedge, Yellow: 5
[8]; postemergence, 62 g ai/ha
  Nutsedge, Yellow plant response rating: 5
[8]; [15]
  Plant response rating, Nutsedge, Yellow: 5
[9]; Postemergence
  Plant response rating (scale of 0 to 100), Pigweed: 25
[9]; Postemergence, 31 g ai/ha
  Plant response rating (scale of 0 to 100 where 0 is no effect and 100 is complete control), Pigweed: 50
[9]; postemergence, 62 g ai/ha
  Pigweed plant response rating: 55
[9]; [15]
  Plant response rating, Pigweed: 60
[10]; Postemergence
  Plant response rating (scale of 0 to 100), Oat, Wild: 5
[10]; Postemergence, 31 g ai/ha
  Plant response rating (scale of 0 to 100 where 0 is no effect and 100 is complete control), Oat, Wild: 5
[10]; postemergence, 62 g ai/ha
  Oat, Wild plant response rating: 5
[10]; [15]
  Plant response rating, Oat, Wild: 5

## CCc1cc(C(=O)NC2CC2)nn1Cc1ccnc(C(F)(F)F)c1 [Compound 76]
[1]
  Plant response rating, Rice: 20
[2]
  Plant response rating, Barnyardgrass: 20
[3]; Preemergence, 250 g ai/ha
  Plant response rating (scale of 0 to 100), Nutsedge, Yellow: 98
[3]; [11]
  Nutsedge, Yellow plant response rating: 40
[3]; [12]
  Plant response rating, Nutsedge, Yellow: 70
[3]; [13]
  Nutsedge, Yellow plant response rating: 90
[4]
  Plant response rating (scale of 0 to 100 where 0 is no effect and 100 is complete control), Ryegrass, Italian: 5
  Ryegrass, Italian plant response rating: 5
[4]; 250 g ai/ha, scale 0 to 100 (0 no effect, 100 complete control)
  Plant response rating, Ryegrass, Italian: 10
[4]; [14]
  Plant response rating, Ryegrass, Italian: 5
[5]; Postemergence, 31 g ai/ha
  Plant response rating (scale of 0 to 100 where 0 is no effect and 100 is complete control), Foxtail, Giant: 20
[5]; postemergence, 62 g ai/ha
  Foxtail, Giant plant response rating: 20
[5]; [16]
  Plant response rating, Foxtail, Giant: 85
[5]; [15]
  Plant response rating, Foxtail, Giant: 65
[6]; Postemergence, 31 g ai/ha
  Plant response rating (scale of 0 to 100 where 0 is no effect and 100 is complete control), Johnsongrass: 0
[6]; postemergence, 62 g ai/ha
  Johnsongrass plant response rating: 0
[6]; [16]
  Plant response rating, Johnsongrass: 25
[6]; [15]
  Plant response rating, Johnsongrass: 25
[7]; Postemergence, 31 g ai/ha, visually evaluated after 13 to 15 days
  Plant response rating (scale of 0 to 100 where 0 is no effect and 100 is complete control), Morningglory: 75
[7]; postemergence, 62 g ai/ha
  Morningglory plant response rating: 75
[7]; [16]
  Plant response rating, Morningglory: 98
[7]; [15]
  Plant response rating, Morningglory: 85
[8]; Postemergence, 31 g ai/ha
  Plant response rating (scale of 0 to 100 where 0 is no effect and 100 is complete control), Nutsedge, Yellow: 5
[8]; postemergence, 62 g ai/ha
  Nutsedge, Yellow plant response rating: 5
[8]; [16]
  Plant response rating, Nutsedge, Yellow: 5
[8]; [15]
  Plant response rating, Nutsedge, Yellow: 5
[9]; Postemergence, 31 g ai/ha
  Plant response rating (scale of 0 to 100 where 0 is no effect and 100 is complete control), Pigweed: 60
[9]; postemergence, 62 g ai/ha
  Pigweed plant response rating: 60
[9]; [16]
  Plant response rating, Pigweed: 98
[9]; [15]
  Plant response rating, Pigweed: 90
[10]; Postemergence, 31 g ai/ha
  Plant response rating (scale of 0 to 100 where 0 is no effect and 100 is complete control), Oat, Wild: 5
[10]; postemergence, 62 g ai/ha
  Oat, Wild plant response rating: 5
[10]; [16]
  Plant response rating, Oat, Wild: 25
[10]; [15]
  Plant response rating, Oat, Wild: 5
